Earlier results as cited in PubChem BioAssay AID1259409 (Chemical Carcinogenesis Research Information System (CCRIS), 2018).

Test system: rodent chemically induced tumor inhibition, incidence and multiplicity
Assay: CCRIS tumor inhibitor studies
Details: Carcinogen: 2,2'-DIHYDROXY-DI-N-PROPYLNITROSAMINE, 13147-25-6, Carcinogen: 2,2'-DIHYDROXY-DI-N-PROPYLNITROSAMINE, 13147-25-6, Dose [Inhibitor]: 0, Route [Inhibitor]: ORAL, Species: RAT, Strain/Sex: F344/MALE, Promoter: NONE USED

Structure (SMILES): CCCCCCCCCCCCCCCC(=O)CC(=O)CCCCCCCCCCCCCCC
- tumour outcome (control, treated, inhibition, significance) (36909-64-6, N-ETHYL-N-HYDROXYETHYL- NITROSAMINE, 3,2'DIMETHYL-4-A, 36909-64-6, N-ETHYL-N-HYDROXYETHYL- NITROSAMINE, 3,2'DIMETHYL-4-A, 0.2% IN DIET BEGINNING 1 WK POST LAST CARCINOGEN DOSE AND CONTINUING FOR 32 WK (STUDY DURATION: 36 WK), Target Tissue: Type of Lesion: URINARY BLADDER: CARCINOMA, Dose [Carcinogen]: 1000 MG/KG IP DHPN 2X, 1500 MG/KG GAV EHEN 2X AND 75 MG/KG SC DMAB 3X GIVEN OVER THE INITIAL 3 WK AT 3-4 D INTERVALS): 1/14 (7%), 1/15 (7%), 0%, not significant
- tumour outcome (control, treated, inhibition, significance) (53609-64-6, N-ETHYL-N-HYDROXYETHYL- NITROSAMINE, 3,2'-DIMETHYL-4-, 53609-64-6, N-ETHYL-N-HYDROXYETHYL- NITROSAMINE, 3,2'-DIMETHYL-4-, 0.2% IN DIET BEGINNING 1 WK POST LAST CARCINOGEN DOSE AND CONTINUING FOR 32 WK (STUDY DURATION: 36 WK), Target Tissue: Type of Lesion: LARGE INTESTINE: ADENOMA, Dose [Carcinogen]: 1000 MG/KG IP DHPN 2X, 1500 MG/KG GAV EHEN 2X AND 75 MG/KG SC DMAB 3X GIVEN OVER THE INITIAL 3 WK PERIOD AT 3-4 D INTERV): 7/14 (50%), 7,15 (47%), 6%, not calculated
- outcome (53609-64-6, N-ETHYL-N-HYDROXYETHYL- NITROSAMINE, 3,2'-DIMETHYL-4-, 53609-64-6, N-ETHYL-N-HYDROXYETHYL- NITROSAMINE, 3,2'-DIMETHYL-4-, 0.2% IN DIET BEGINNING 1 WK POST LAST CARCINOGEN DOSE AND CONTINUING FOR 32 WK (STUDY DURATION: 36 WK), Target Tissue: Type of Lesion: URINARY BLADDER: PAPILLOMA, Dose [Carcinogen]: 1000 MG/KG IP DHPN 2X, 1500 MG/KG GAV EHEN 2X AND 75 MG/KG SC DMAB 3X GIVEN OVER THE INITIAL 3 WK PERIOD AT 3-4 D INTERV): 0/14 (0%), 3/15 (20%), -100%, not calculated
- tumour outcome (control, treated, inhibition, significance) (53609-64-6, N-ETHYL-N-HYDROXYETHYL- NITROSAMINE, 3,2'-DIMETHYL-4-, 53609-64-6, N-ETHYL-N-HYDROXYETHYL- NITROSAMINE, 3,2'-DIMETHYL-4-, 02% IN DIET BEGINNING 1 WK POST LAST CARCINOGEN DOSE AND CONTINUING FOR 32 WK (STUDY DURATION: 36 WK), Target Tissue: Type of Lesion: LUNG: CARCINOMA, Dose [Carcinogen]: 1000 MG/KG IP DHPN 2X , 1500 MG/KG GAV EHEN 2X AND 75 MG/KG SC DMAB 3X GIVEN OVER THE INITIAL 3 WK PERIOD AT 3-4 D INTER): 1/14 (7%), 3/15 (20%), -186%, not calculated
- tumour outcome (control, treated, inhibition, significance) (53609-64-6, N-ETHYL-N-HYDROXYETHYL- NITROSAMINE, 3,2'DIMETHYL-4-A, 53609-64-6, N-ETHYL-N-HYDROXYETHYL- NITROSAMINE, 3,2'DIMETHYL-4-A, 0.2% IN DIET BEGINNING 1 WK POST LAST CARCINOGEN DOSE AND CONTINUING FOR 32 WK (STUDY DURATION: 36 WK), Target Tissue: Type of Lesion: LIVER: HEPATOCELLULAR CARCINOMA, Dose [Carcinogen]: 1000 MG/KG IP DHPN 2X, 1500 MG/KG GAV EHEN 2X AND 75 MG/KG SC DMAB 3X GIVEN OVER THE INITIAL 3 WK AT 3-4 D INTERVALS): 6/14 (43%), 1/15 (7%), 84%, p<0.05
- tumour outcome (control, treated, inhibition, significance) (53609-64-6, N-ETHYL-N-HYDROXYETHYLNITROSAMINE, 3,2'-DIMETHYL-1,4-, 53609-64-6, N-ETHYL-N-HYDROXYETHYLNITROSAMINE, 3,2'-DIMETHYL-1,4-, 0.2% IN DIET FOR 4 WK BEGINNING 1 D PRIOR TO FIRST CARCINOGEN DOSE (STUDY DURATION: 36 WK), Target Tissue: Type of Lesion: KIDNEY: ADENOMA, Dose [Carcinogen]: 1000 MG/KG BW DHPN TWICE, 1500 MG/KG EHEN TWICE, 75 MG/KG BW DMAB 3 TIMES, SEQUENTIALLY OVER 3 WK): 6/10 (60%), 7/13 (54%), 10%, not significant
- tumour outcome (control, treated, inhibition, significance) (53609-64-6, N-ETHYL-N-HYDROXYETHYLNITROSAMINE, 3,2'-DIMETHYL-1,4-, 53609-64-6, N-ETHYL-N-HYDROXYETHYLNITROSAMINE, 3,2'-DIMETHYL-1,4-, 0.2% IN DIET FOR 4 WK BEGINNING 1 D PRIOR TO FIRST CARCINOGEN DOSE (STUDY DURATION: 36 WK), Target Tissue: Type of Lesion: LUNG: ADENOMA, Dose [Carcinogen]: 1000 MG/KG BW DHPN TWICE, 1500 MG/KG EHEN TWICE, 75 MG/KG BW DMAB 3 TIMES, SEQUENTIALLY OVER 3 WK): 5/10 (50%), 6/13 (46%), 8%, not significant
- tumour outcome (control, treated, inhibition, significance) (53609-64-6, N-ETHYL-N-HYDROXYETHYLNITROSAMINE, 3,2'-DIMETHYL-4-AMINO-, 53609-64-6, N-ETHYL-N-HYDROXYETHYLNITROSAMINE, 3,2'-DIMETHYL-4-AMINO-, 0.2% IN DIET FOR 32 WK BEGINNING 1 WK POST CARCINOGEN TREATMENT (STUDY DURATION: 36 WK), Target Tissue: Type of Lesion: KIDNEY: ADENOMA, Dose [Carcinogen]: 1000 MG/KG BW DHPN TWICE, 1500 MG/KG BW EHEN TWICE, 75 MG/KG BW 3 TIMES ADMINISTERED OVER FIRST 3 WK): 6/14 (43%), 5/15 (33%), 23% , not significant
- tumour outcome (control, treated, inhibition, significance) (53609-64-6, N-ETHYL-N-HYDROXYETHYLNITROSAMINE, 3,2'-DIMETHYL-4-AMINO-, 53609-64-6, N-ETHYL-N-HYDROXYETHYLNITROSAMINE, 3,2'-DIMETHYL-4-AMINO-, 0.2% IN DIET FOR 32 WK BEGINNING 1 WK POST CARCINOGEN TREATMENT (STUDY DURATION: 36 WK), Target Tissue: Type of Lesion: KIDNEY: NEPHROBLASTOMA, Dose [Carcinogen]: 1000 MG/KG BW DHPN TWICE, 1500 MG/KG BW EHEN TWICE, 75 MG/KG BW 3 TIMES ADMINISTERED OVER FIRST 3 WK): 2/14 (14%), 2/15 (13%), 7%, not significant
- tumour outcome (control, treated, inhibition, significance) (53609-64-6, N-ETHYL-N-HYDROXYETHYLNITROSAMINE, 3,2'-DIMETHYL-4-AMINO-, 53609-64-6, N-ETHYL-N-HYDROXYETHYLNITROSAMINE, 3,2'-DIMETHYL-4-AMINO-, 0.2% IN DIET FOR 32 WK BEGINNING 1 WK POST CARCINOGEN TREATMENT (STUDY DURATION: 36 WK), Target Tissue: Type of Lesion: KIDNEY: TRANSITIONAL CELL CARCINOMA, Dose [Carcinogen]: 1000 MG/KG BW DHPN TWICE, 1500 MG/KG BW EHEN TWICE, 75 MG/KG BW 3 TIMES ADMINISTERED OVER FIRST 3 WK): 1/14 (7%), 1/15 (7%), 0%, not significant
